Test results: US9243254B2, “Method for transforming a bacterium belonging to the streptococcus genus by natural competence” (priority 2009, dated 2016)

Experiments:
S. thermophilus DGCC7773 = assay: Natural transformation in CDM upon addition of synthetic peptide; format: cell-based, Streptococcus thermophilus; conditions: 1 μM LPYFAGCL, 1 μg/mL pUC18_stu0855::P32cat
Protocol: (§1) Similarly to the protocol used in example 4, various S. thermophilus strains, including LMD-9, CNRZ1066 and LMG18311 used as controls, were pre-cultivated in M17-lactose medium. The cells of the precultures were harvested (5000 g, 9 minutes, 20° C.) and washed twice in CDM and then resuspended in CDM. The washed cells were diluted in fresh CDM medium to obtain an optical density of 0.05, and then incubated at 37° C. After 1.5 h of incubation, in one set of experiment, 1 μM of one of the tested synthetic peptides (LPYFAGCL) (SEQ ID NO: 85) and 1 μg/mL of pGIUD0855cat DNA were added to the culture, whereas 1 μg/mL of DNA but no synthetic peptide was added to the second set of experiment. Plasmid pGIUD0855cat is a pUC18-derivative containing a chloramphenicol resistance cassette flanked by 1-kb fragments corresponding to the upstream and downstream regions of stu0855. Upon transformation, it promotes the genetic replacement of stu0855 by P32-cat through homologous recombination (FIG. 7). The cultures were grown during 6 hours and serial dilutions were plated on the surface of M17-lactose agar medium containing 5 μg/mL of chloramphenicol to measure transformation efficiency. Transformed S. thermophilus cells were selected at 37° C.; when transformants were obtained, the transformation efficiency was calculated and is given in Table 9.

S. thermophilus DGCC7796 = assay: as above; format: cell-based, Streptococcus thermophilus; conditions: 1 μM LPYFAGCL, 1 μg/mL pUC18_stu0855::P32cat
Protocol: as §1

S. thermophilus DGCC7666 = assay: as above; format: cell-based, Streptococcus thermophilus; conditions: 1 μM LPYFAGCL, 1 μg/mL pUC18_stu0855::P32cat
Protocol: as §1

S. thermophilus DGCC7790 = assay: as above; format: cell-based, Streptococcus thermophilus; conditions: 1 μM LPYFAGCL, 1 μg/mL pUC18_stu0855::P32cat
Protocol: as §1

S. thermophilus DGCC7909 = assay: as above; format: cell-based, Streptococcus thermophilus; conditions: 1 μM LPYFAGCL, 1 μg/mL pUC18_stu0855::P32cat
Protocol: as §1

S. thermophilus DGCC7891 = assay: as above; format: cell-based, Streptococcus thermophilus; conditions: 1 μM LPYFAGCL, 1 μg/mL pUC18_stu0855::P32cat
Protocol: as §1

S. thermophilus DGCC7854 = assay: as above; format: cell-based, Streptococcus thermophilus; conditions: 1 μM LPYFAGCL, 1 μg/mL pUC18_stu0855::P32cat
Protocol: as §1

[1] = test system: various S. thermophilus strains; assay: Competence induction over the panel of S. thermophilus strains (summary of Table 9); format: cell-based, Streptococcus thermophilus
Protocol: as §1

S. salivarius JIM8777 = assay: Natural transformation in CDM upon addition of synthetic peptide; format: cell-based, Streptococcus salivarius
Protocol: Similarly to the protocol used in example 4, strains LMD-9, LMG18311, CNRZ1066 and JIM8777 were pre-cultivated in M17-lactose medium. The cells of the precultures were harvested (5000 g, 9 minutes, 20° C.) and washed twice in CDM and then resuspended in CDM. The washed cells were diluted in fresh CDM medium to obtain an optical density of 0.05, and then incubated at 37° C. After 1.5 h of incubation, in one set of experiment, 1 μM of one of the tested synthetic peptides and 1 μg/mL of pGIUD0855ery DNA (in case of S. thermophilus strains), or 1 μg/ml of pG+host09 DNA (in case of S. salivarius strains) were added to the culture, whereas 1 μg/mL of DNA but no synthetic peptide was added to the second set of experiment. The cultures were grown during 6 hours and serial dilutions were plated on the surface of M17-lactose agar medium containing 2.5 μg/mL of erythromycin to measure transformation efficiency. Transformed S. thermophilus and S. salivarius cells are selected at 37° C. and 29° C., respectively.
Day 2: • Centrifuge Day 1—culture (centrifugation parameters: 5000 g, 9 minutes, 15° C.) and perform two washing steps with one volume (10 mL) of CDM (centrifugation parameters: 5000 g, 9 minutes, 15° C.). • Dilute the culture in 10 mL CDM to obtain an OD600nm of 0.05. • A small volume of S. thermophilus cultures (300 μL) is then transferred in white microplate with a transparent bottom (655095; Greiner, Alphen aid Rijn, The Netherlands) and is grown at 37° C. Luminescence at 595 nm and optical density at 600 nm are recorded with the automatic Synergy HT multi-mode microplate reader. The luciferase activity catalysed by LuxAB requires the presence of nonanal as substrate. In this experimental set-up, nonanal (Acros Organics ref. 204-688-5) is supplied to the cultures by placing 50 μL of a solution containing 1% nonanal diluted in mineral oil in the spaces between the wells of a covered microplate (11). The nonanal present in the solution will become volatile and there will be an equilibrium between the concentration of nonanal present in the air and in the culture samples. The luminescence and absorbance are scanned every 10 minutes during 6 hours. • To perform a competence experiment, 1 μg of donor DNA is added in the 300 μL samples in the beginning of incubation. […] In case of the sample that received DNA, make different 10-fold dilutions of the sample and plate 100 μL on the same solid selective medium. Check the viability of the cells in the samples by plating 10 μL of serial 10-fold dilutions of the cultures on M17, lactose 1% medium. Transformants are picked following 24 h of incubation at 37° C. in anaerobic conditions (gaspak BBL). […]

LPYFAGCL (fragment) [synthetic peptide corresponding to a C-terminal fragment of Shp316]
Transformation rate, With peptide addition (S. thermophilus DGCC7773): 1.5 × 10^−1
Transformation rate, With peptide addition (S. thermophilus DGCC7796): 6.9 × 10^−2
Transformation rate, With peptide addition (S. thermophilus DGCC7666): 4.2 × 10^−2
Transformation rate, With peptide addition (S. thermophilus DGCC7790): 4.3 × 10^−2
Transformation rate, With peptide addition (S. thermophilus DGCC7909): 4.5 × 10^−3
Transformation rate, With peptide addition (S. thermophilus DGCC7891): 1.4 × 10^−4
Transformation rate, With peptide addition (S. thermophilus DGCC7854): 5.3 × 10^−3
Improvement of the efficiency of transformation by the addition of the peptide ([1]; 1 μM LPYFAGCL versus no peptide): up to 6 Log
Number of strains competent when CDM is supplemented with the peptide ([1]; 1 μM LPYFAGCL, 9 competent without peptide): 19 strains
Number of strains whose efficiency of transformation was greatly improved by the addition of the peptide ([1]; out of the 19 competent strains): 17 strains

PYFAGCL (fragment)
Transformation rate, With peptide addition (S. salivarius JIM8777; 1 μM PYFAGCL, 1 μg/mL pG+host9): 3.07 × 10^−6
Complementation of the transformation defect in CDM (S. salivarius JIM8777; 1 μM peptide, result in words): complements the transformation defect
